According to patent US11259516B2, “Method and apparatus for capsular delivery to plants” (priority 2017, dated 2022):

Legend:
[1] = tested on: Cascabela thevetia (Yellow oleander); parameters: key: X indicates that the given herbicide is suitable for controlling the given weed; conditions: cited from earlier work
[2] = tested on: Erythrina crista-galli (Cockspur coral tree); parameters: key: X indicates that the given herbicide is suitable for controlling the given weed; conditions: cited from earlier work
[3] = tested on: Ricinus communis (Castor oil plant); parameters: key: X indicates that the given herbicide is suitable for controlling the given weed; conditions: in vivo; cited from earlier work
[4] = tested on: Senna pendula (Winter senna); parameters: key: X indicates that the given herbicide is suitable for controlling the given weed; conditions: cited from earlier work
[5] = tested on: Pittosporum undulatum (Sweet pittosporum); parameters: key: X indicates that the given herbicide is suitable for controlling the given weed; conditions: cited from earlier work
[6] = tested on: Gleditsia triacanthos (Honey locust); parameters: key: X indicates that the given herbicide is suitable for controlling the given weed; conditions: cited from earlier work
[7] = tested on: Tabebuia aurea (Tabebuia); parameters: key: X indicates that the given herbicide is suitable for controlling the given weed; conditions: cited from earlier work
[8] = tested on: Cestrum parqui (Green cestrum); parameters: key: X indicates that the given herbicide is suitable for controlling the given weed; conditions: cited from earlier work
Phoenix spp (Palms) = tested on: Phoenix spp (Palms); parameters: key: X indicates that the given herbicide is suitable for controlling the given weed; conditions: cited from earlier work
Acer negudo (Box elder) = tested on: Acer negudo (Box elder); parameters: key: X indicates that the given herbicide is suitable for controlling the given weed; conditions: cited from earlier work
[9] = tested on: western white gum (Eucalyptus argophloia); experiment: Example 3: glyphosate and glyphosate+imazapyr capsules, thinning trial in western white gum plantation
Experimental: The trial was established at the HQP plantation near Jandowae on 6 Feb. 2018. The trees were planted in rows 4 m apart at 1.5 m spacing. Trees were 6-10 m tall. Trees to be maintained were marked and the other trees were treated.
Four treatments were used, with capsules as follows:
Capsules and applicator used were as described in Example 2.
Herbicide capsules were applied to approx. 10 trees for each of the treatments. The number of capsules applied to each tree was independent of tree circumference which was measured at chest height. The tree circumferences range was from 12 to 25 centimetres. At 4 weeks, a small sample of trees were cut down with a chainsaw and cross-sections of stems containing the sites of insertion of the herbicide capsules removed. These stem pieces were returned to the laboratory and split open longitudinally through the insertion point. Tree health was assessed at 11 weeks (24 Apr. 2018) on a 0-4 scale with 0 being dead and 4 being healthy. Observations were made for evidence of flashback in untreated trees.

Acacia spp (Wattles) = tested on: Acacia spp (Wattles); parameters: key: X indicates that the given herbicide is suitable for controlling the given weed; conditions: cited from earlier work
Populus spp (Poplars) = tested on: Populus spp (Poplars); parameters: key: X indicates that the given herbicide is suitable for controlling the given weed; conditions: cited from earlier work
[10] = tested on: Erythrina sykesii (Coral tree); parameters: key: X indicates that the given herbicide is suitable for controlling the given weed; conditions: cited from earlier work
[11] = tested on: Ligustrum sinense (Chinese privet); parameters: key: X indicates that the given herbicide is suitable for controlling the given weed; conditions: cited from earlier work
[12] = tested on: Senegalia catechu (Cutch tree); parameters: key: X indicates that the given herbicide is suitable for controlling the given weed; conditions: cited from earlier work
[13] = tested on: Eucalyptus dunnii (Dunn's White Gum); experiment: Case 3: dose rate effect of Di-Bak G on Eucalyptus dunnii, field trial; assay type: in vivo; conditions: for mortality: single capsule per tree
Experimental: Generally, one capsule was inserted per 10 cm stem circumference.
Tree health was assessed on a 0-4 scale, 0 being dead and 4 being healthy. Observations were made for evidence of ‘flashback’ in nearby untreated trees.
In this trial, one, two or three capsules of glyphosate were inserted into Eucalyptus dunnii trees irrespective of their circumference. The trial was established on Brooklyn station, Upper Tooloom, near Urbenville on 26 May 2017. GPS co-ordinates were S28° 32.488′ E152° 24.778′. The trees were arranged in a similar manner, and similar in age and size, to the E. saligna trees described in Case 2. Desirable trees were marked and the other trees were treated.
This trial consisted of one replicate of 15 trees for each treatment. […] Tree health was assessed at 4 months (25 Aug. 2017) and 7 months (20 Dec. 2017). […] At the 4 month assessment, samples were collected for observation of dissolution of capsule and herbicide. Rainfall data for the closest recording station (Urbenville) was taken from the Bureau of Meteorology (BOM) internet site. No recent temperature data records were available for this site.

[14] = tested on: Celtis sinensis (Chinese celtis); parameters: key: X indicates that the given herbicide is suitable for controlling the given weed; conditions: cited from earlier work

## O=C(O)CNCP(=O)(O)O [Glyphosate]
[1]
  suitability of herbicide for control of weed: X
[2]
  suitability of herbicide for control of weed: X
[3]
  suitability of herbicide for control of weed: X
[4]
  suitability of herbicide for control of weed: X
[5]
  suitability of herbicide for control of weed: X
[6]
  suitability of herbicide for control of weed: X
[7]
  suitability of herbicide for control of weed: X
[8]
  suitability of herbicide for control of weed: X
Phoenix spp (Palms)
  suitability of herbicide for control of weed: X
Acer negudo (Box elder)
  suitability of herbicide for control of weed: X
[9]; 11 week assessment
  flashback in the trees marked for retention: no flashback was observed
[9]; 11 weeks post treatment, 1 or 2 capsules per tree
  trees died (health rating 0-4 scale, 0 dead): majority of trees
Acacia spp (Wattles)
  suitability of herbicide for control of weed: X
Populus spp (Poplars)
  suitability of herbicide for control of weed: X
[10]
  suitability of herbicide for control of weed: X
[11]
  suitability of herbicide for control of weed: X
[12]
  suitability of herbicide for control of weed: X
[13]; 2 capsules per tree, at 4 months
  trees dead: ~90%
[13]; 2 capsules per tree, by 7 months
  treated trees killed: all had been killed
[13]; 3 capsules per tree, by 4 months
  treated trees killed: killed all treated trees
[13]; at 4 months
  mortality: ~70%
[13]; by 7 months
  mortality: ~80%
[14]
  suitability of herbicide for control of weed: X
